The source of these data is patent US12030879B2, “Sulfonyl acetamides as NLRP3 inhibitors” (Inflazome Limited, priority 2018, dated 2024).

A word on the IC50: it is the point on the concentration scale where inhibition reaches its midpoint. Higher therefore signals a need for much substance.

SMILES strings stand for the structures.

In the experiment the target is T1, NLRP3 (Homo sapiens, UniProt Q96P20).
T1 construct: Seed THP-1 cells (25,000 cells/well) containing 1.0 μg/ml LPS in 40 μl of RPMI medium; host or cells: THP-1 cells
T1 sequence (Q96P20 whole entry): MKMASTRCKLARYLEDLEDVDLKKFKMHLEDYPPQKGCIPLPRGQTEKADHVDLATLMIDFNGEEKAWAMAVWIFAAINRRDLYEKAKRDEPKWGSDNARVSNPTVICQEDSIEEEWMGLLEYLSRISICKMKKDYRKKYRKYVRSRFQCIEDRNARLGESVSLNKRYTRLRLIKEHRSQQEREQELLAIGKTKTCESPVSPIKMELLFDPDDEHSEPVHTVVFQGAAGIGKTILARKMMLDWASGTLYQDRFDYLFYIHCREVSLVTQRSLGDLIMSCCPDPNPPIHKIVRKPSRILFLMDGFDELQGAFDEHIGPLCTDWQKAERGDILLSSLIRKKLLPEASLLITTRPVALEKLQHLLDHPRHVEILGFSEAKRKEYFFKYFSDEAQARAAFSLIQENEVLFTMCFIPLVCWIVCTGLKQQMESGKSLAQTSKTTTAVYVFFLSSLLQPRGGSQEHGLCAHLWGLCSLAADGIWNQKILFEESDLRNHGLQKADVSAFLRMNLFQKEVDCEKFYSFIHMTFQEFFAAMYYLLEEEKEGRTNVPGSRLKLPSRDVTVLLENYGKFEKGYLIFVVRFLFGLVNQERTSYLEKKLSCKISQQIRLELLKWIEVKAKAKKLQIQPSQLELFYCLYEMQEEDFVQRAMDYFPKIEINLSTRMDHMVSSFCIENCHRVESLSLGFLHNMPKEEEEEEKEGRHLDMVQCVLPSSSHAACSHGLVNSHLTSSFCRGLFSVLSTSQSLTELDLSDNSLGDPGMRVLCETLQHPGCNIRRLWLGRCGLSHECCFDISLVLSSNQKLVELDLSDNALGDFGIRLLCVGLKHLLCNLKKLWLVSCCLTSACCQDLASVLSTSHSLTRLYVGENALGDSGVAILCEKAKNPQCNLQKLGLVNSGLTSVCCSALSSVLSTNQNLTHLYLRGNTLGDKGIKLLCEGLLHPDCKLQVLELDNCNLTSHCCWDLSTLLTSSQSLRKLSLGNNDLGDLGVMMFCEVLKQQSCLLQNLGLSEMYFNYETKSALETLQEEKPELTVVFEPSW
Briefly: THP-1 cells pyroptosis assay. The experiment is classed as cell-based. The conditions noted are these: LPS 1 μg/ml, compound 3 hrs, nigericin 5 μM 1 hr, resazurin readout. In short, it runs like this:
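LPS-primed (1 μg/ml) THP-1 cells in serum-free RPMI were treated 3 h with compound (8-point half-log, top 10 μM; 0.1% DMSO), then with 5 μM nigericin for 1 h at 37°C. Viability was read by 100 μM resazurin (ex 560/em 590 nm) after 1–2 h. IC50 came from 4-parameter nonlinear regression.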
In turn, `COc1cc(-c2cc(F)cc(C(C)C)c2CC(=O)NS(=O)(=O)c2ccc(C(=O)N(C)C)c(Cl)c2)ccn1` [Example 96, 2-Chloro-4-(N-(2-(4-fluoro-2-isopropyl-6-(2-methoxypyridin-4-yl)phenyl)acetyl)sulfamoyl)-N,N-dimethylbenzamide] registered a half-inhibitory concentration (IC50) not above 10000 nM.

Take `COc1ccc(-c2cc(F)cc(C(C)C)c2CC(=O)NS(=O)(=O)c2ccc(C(C)(C)O)cc2C)cn1` [Example 97, 2-(4-Fluoro-2-isopropyl-6-(6-methoxypyridin-3-yl)phenyl)-N-((4-(2-hydroxypropan-2-yl)-2-methylphenyl)sulfonyl)acetamide]: the 50% inhibitory concentration (IC50) is not above 5000 nM.

For the compound `COc1cc(-c2cc(F)cc(C(C)C)c2CC(=O)NS(=O)(=O)c2ccc(C(C)(C)O)c(Cl)c2)ccn1` [Example 98, N-((3-Chloro-4-(2-hydroxypropan-2-yl)phenyl)sulfonyl)-2-(4-fluoro-2-isopropyl-6-(2-methoxypyridin-4-yl)phenyl)acetamide], the IC50 is not above 500 nM. To `COc1ccncc1-c1cc(F)cc(C(C)C)c1CC(=O)NS(=O)(=O)c1cc(C(C)(C)O)cs1` [Example 99, 2-(4-Fluoro-2-isopropyl-6-(4-methoxypyridin-3-yl)phenyl)-N-((4-(2-hydroxypropan-2-yl)thiophen-2-yl)sulfonyl)acetamide] belongs not above 500 nM; to `Cc1cnccc1-c1cc(F)cc(C(C)C)c1CC(=O)NS(=O)(=O)c1cc(C(C)(C)O)cs1` [Example 100, 2-(4-Fluoro-2-isopropyl-6-(3-methylpyridin-4-yl)phenyl)-N-((4-(2-hydroxypropan-2-yl)thiophen-2-yl)sulfonyl)acetamide], not above 500 nM; to `COc1cc(-c2cc(F)cc(C(C)C)c2CC(=O)NS(=O)(=O)c2ccc(Cl)c(C)c2)ccn1` [Example 101, N-((4-Chloro-3-methylphenyl)sulfonyl)-2-(4-fluoro-2-isopropyl-6-(2-methoxypyridin-4-yl)phenyl)acetamide], not above 500 nM. In turn, `COc1cc(-c2cc(F)cc(C(C)C)c2CC(=O)NS(=O)(=O)c2ccc(O)nc2C)ccn1` [Example 102, 2-(4-Fluoro-2-isopropyl-6-(2-methoxypyridin-4-yl)phenyl)-N-((6-hydroxy-2-methylpyridin-3-yl)sulfonyl)acetamide] showed an IC50 not above 10000 nM.

Compound `COc1cc(-c2cc(F)cc(C(C)C)c2C(F)C(=O)NS(=O)(=O)c2cc(C(C)(C)O)co2)ccn1` (stereo not drawn) [Example 103, 2-Fluoro-2-(4-fluoro-2-isopropyl-6-(2-methoxypyridin-4-yl)phenyl)-N-((4-(2-hydroxypropan-2-yl)furan-2-yl)sulfonyl)acetamide] yielded an IC50 not above 10000 nM.

`COc1cc(-c2cc(F)cc(C(C)C)c2C(F)C(=O)NS(=O)(=O)c2cc(C(C)(C)O)cs2)ccn1` (stereo not drawn) [Example 104, 2-Fluoro-2-(4-fluoro-2-isopropyl-6-(2-methoxypyridin-4-yl)phenyl)-N-((4-(2-hydroxypropan-2-yl)thiophen-2-yl)sulfonyl)acetamide] came in with a 50% inhibitory concentration (IC50) not above 5000 nM. Turning to `COc1cc(-c2ccc3c(c2CC(=O)NS(=O)(=O)c2ncc(C(C)(C)O)s2)CCC3)ccn1` [Example 105, N-((5-(2-Hydroxypropan-2-yl)thiazol-2-yl)sulfonyl)-2-(5-(2-methoxypyridin-4-yl)-2,3-dihydro-1H-inden-4-yl)acetamide], the IC50 was not above 10000 nM.

The compound `COc1cc(-c2cc(F)cc(C(C)C)c2CC(=O)NS(=O)(=O)c2ncc(C(C)(C)O)s2)ccn1` [Example 106, 2-(4-Fluoro-2-isopropyl-6-(2-methoxypyridin-4-yl)phenyl)-N-((5-(2-hydroxypropan-2-yl)thiazol-2-yl)sulfonyl)acetamide] yielded an IC50 not above 5000 nM.

In the case of `COc1cc(-c2ccc3c(c2CC(=O)NS(=O)(=O)c2cnc(C(C)(C)O)s2)CCC3)ccn1` [Example 107, N-((2-(2-Hydroxypropan-2-yl)thiazol-5-yl)sulfonyl)-2-(5-(2-methoxypyridin-4-yl)-2,3-dihydro-1H-inden-4-yl)acetamide], the IC50 was not above 5000 nM. To `COc1cc(-c2cc(F)cc(C(C)C)c2CC(=O)NS(=O)(=O)c2cnc(C(C)(C)O)s2)ccn1` [Example 108, 2-(4-Fluoro-2-isopropyl-6-(2-methoxypyridin-4-yl)phenyl)-N-((2-(2-hydroxypropan-2-yl)thiazol-5-yl)sulfonyl)acetamide] belongs not above 5000 nM; to `COc1cc(-c2cc(F)cc(C(C)C)c2CC(=O)NS(=O)(=O)c2ccccc2)ccn1` [Example 111, 2-(4-Fluoro-2-isopropyl-6-(2-methoxypyridin-4-yl)phenyl)-N-(phenylsulfonyl)acetamide], not above 5000 nM. To `COc1cc(-c2cc(F)cc(C(C)C)c2CC(=O)NS(=O)(=O)c2ccc(C)cc2)ccn1` [Example 112, 2-(4-Fluoro-2-isopropyl-6-(2-methoxypyridin-4-yl)phenyl)-N-tosylacetamide] belongs not above 5000 nM.

Take `COc1cc(-c2cc(F)cc(C(C)C)c2CC(=O)NS(=O)(=O)c2c(F)cc(C)cc2F)ccn1` [Example 113]: the half-maximal inhibitory concentration (IC50) is not above 1000 nM. Consider `COc1cc(-c2cc(F)cc(C(C)C)c2CC(=O)NS(=O)(=O)CC2(C#N)CCCCC2)ccn1` [Example 114], for which the concentration for half-maximal inhibition (IC50) is not above 1000 nM. For `COc1cc(-c2cc(F)cc(C(C)C)c2CC(=O)NS(=O)(=O)c2cccc3ccoc23)ccn1` [Example 115], the IC50 is not above 1000 nM. To `COc1cc(-c2cc(F)cc(C(C)C)c2CC(=O)NS(=O)(=O)c2cc3ccccc3o2)ccn1` [Example 116] belongs not above 1000 nM; to `CCc1cccc(S(=O)(=O)NC(=O)Cc2c(-c3ccnc(OC)c3)cc(F)cc2C(C)C)c1` [Example 117], not above 500 nM. The same measure for `COc1cc(-c2cc(F)cc(C(C)C)c2CC(=O)NS(=O)(=O)c2ccc3c(c2)CCCO3)ccn1` [Example 118]: not above 1000 nM; for `COc1cccc(S(=O)(=O)NC(=O)Cc2c(-c3ccnc(OC)c3)cc(F)cc2C(C)C)c1` [Example 119]: not above 1000 nM; for `COc1cc(-c2cc(F)cc(C(C)C)c2CC(=O)NS(=O)(=O)c2ccc(C)cc2F)ccn1` [Example 120]: not above 1000 nM.

Regarding `COc1cc(-c2cc(F)cc(C(C)C)c2CC(=O)NS(=O)(=O)c2cc(C)c(C)s2)ccn1` [Example 121], the IC50 is not above 500 nM. In turn, `COc1cc(-c2cc(F)cc(C(C)C)c2CC(=O)NS(=O)(=O)c2ccc(C)c(C)c2)ccn1` [Example 122] came in with a 50% inhibitory concentration (IC50) not above 500 nM. In turn, `COc1cc(-c2cc(F)cc(C(C)C)c2CC(=O)NS(=O)(=O)c2ccc3c(c2)CCC3)ccn1` [Example 123] had an IC50 not above 500 nM. Regarding `COc1cc(-c2cc(F)cc(C(C)C)c2CC(=O)NS(=O)(=O)c2ccc3c(c2)COC3)ccn1` [Example 124], the concentration for half-maximal inhibition (IC50) was not above 500 nM.

`COc1cc(-c2cc(F)cc(C(C)C)c2CC(=O)NS(=O)(=O)c2ccc(C)c(F)c2)ccn1` [Example 125] displayed a half-inhibitory concentration (IC50) not above 500 nM. To `COc1cc(-c2cc(F)cc(C(C)C)c2CC(=O)NS(=O)(=O)c2ccc3ccccc3c2)ccn1` [Example 126] belongs not above 500 nM; to `COc1cc(-c2cc(F)cc(C(C)C)c2CC(=O)NS(=O)(=O)c2ccc(-c3cnco3)s2)ccn1` [Example 127], not above 5000 nM. For `COc1cc(-c2cc(F)cc(C(C)C)c2CC(=O)NS(=O)(=O)c2cc(Br)ccc2C)ccn1` [Example 128], the half-inhibitory concentration (IC50) was not above 1000 nM. To `COc1cc(-c2cc(F)cc(C(C)C)c2CC(=O)NS(=O)(=O)c2ccc(Br)cc2C)ccn1` [Example 129] belongs not above 1000 nM. The same measure for `COc1cc(-c2cc(F)cc(C(C)C)c2CC(=O)NS(=O)(=O)c2ccc(CCNC(C)=O)cc2)ccn1` [Example 130]: not above 5000 nM; for `COc1cc(-c2cc(F)cc(C(C)C)c2CC(=O)NS(=O)(=O)c2nn(C)/c(=N\C(C)=O)s2)ccn1` [Example 131]: not above 5000 nM; for `COc1cc(-c2cc(F)cc(C(C)C)c2CC(=O)NS(=O)(=O)c2ccc(/C(C)=N\O)cc2)ccn1` [Example 132]: not above 5000 nM.

The compound `COc1cc(-c2cc(F)cc(C(C)C)c2CC(=O)NS(=O)(=O)c2cccc(CNC(C)=O)c2)ccn1` [Example 133] registered an IC50 not above 5000 nM. `COc1cc(-c2cc(F)cc(C(C)C)c2CC(=O)NS(=O)(=O)c2ccc(C(C)(C)F)cc2C)ccn1` [Example 134]: the IC50 is not above 500 nM. To `COc1cc(-c2cc(F)cc(C(C)C)c2CC(=O)NS(=O)(=O)c2ccc(Cl)c(F)c2)ccn1` [Example 135] belongs not above 5000 nM; to `COc1cc(-c2cc(F)cc(C(C)C)c2CC(=O)NS(=O)(=O)c2ccc(Cl)cc2C)ccn1` [Example 136], not above 1000 nM; to `COc1cc(-c2cc(F)cc(C(C)C)c2CC(=O)NS(=O)(=O)c2ccc(C(C)(C)O)cn2)ccn1` [Example 137], not above 10000 nM. The same measure for `COc1cc(-c2cc(F)cc(C(C)C)c2CC(=O)NS(=O)(=O)c2nnc(NC(C)=O)s2)ccn1` [Example 138]: not above 10000 nM; for `COc1cc(-c2cc(F)cc(C(C)C)c2CC(=O)NS(=O)(=O)c2cc(F)c(Br)cc2C)ccn1` [Example 139]: not above 500 nM. For the compound `COc1cc(-c2cc(F)cc(C(C)C)c2CC(=O)NS(=O)(=O)c2ccc(Br)cc2C(F)(F)F)ccn1` [Example 140], the half-inhibitory concentration (IC50) is not above 5000 nM.

The compound `COc1cc(-c2cc(F)cc(C(C)C)c2CC(=O)NS(=O)(=O)c2ccc(Cl)c(C(F)(F)F)c2)ccn1` [Example 141] showed a 50% inhibitory concentration (IC50) not above 1000 nM.

In the case of `CC(C)c1cc(F)cc(-c2cccnc2)c1CC(=O)NS(=O)(=O)c1cnc(C(C)(C)O)s1` [Example 142], the IC50 is not above 1000 nM. Compound `CC(C)c1cc(F)cc(-c2cccnc2)c1CC(=O)NS(=O)(=O)c1ncc(C(C)(C)O)s1` [Example 143] registered an IC50 not above 1000 nM.

Compound `COc1cc(-c2cc(F)cc(C(C)C)c2CC(=O)NS(=O)(=O)c2cc(C(C)(C)OC)cs2)ccn1` [Example 144] showed an IC50 not above 500 nM. In turn, `COc1ccc(-c2cc(F)cc(C(C)C)c2CC(=O)NS(=O)(=O)c2cc(C(C)(C)O)cs2)cn1` [Example 145] came in with a 50% inhibitory concentration (IC50) not above 500 nM.
